Measurements: patent publication US20070276034A1, “Compounds, compositions and methods for the treatment of synucleinopathies” (priority 2002, published 2007)
Read-outs that look alike come from different tables or passages of the source.

Tests used:
Format in all cases: biochemical
Aβ 1-42 fibrils = target: T1, Aβ 1-42 fibrils (Homo sapiens, UniProt P05067); assay: Thioflavin T fluorometry - disruption of pre-formed Aβ 1-42 Alzheimer's fibrils; settings: 25 μM pre-fibrillized Aβ 1-42, 37° C., 3 days, read-out: % Inhibition Aβ (result ± S.D.)
T1 construct: purchased Bachem Inc
T1 sequence (P05067 672-713): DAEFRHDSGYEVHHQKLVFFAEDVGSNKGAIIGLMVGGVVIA
Excerpt: In one study, Thioflavin T fluorometry was used to determine the effects of the compounds, and of EDTA (as a negative control). In this assay Thioflavin T binds specifically to fibrillar amyloid, and this binding produces a fluorescence enhancement at 485 nm that is directly proportional to the amount of amyloid fibrils formed. The higher the fluorescence, the greater the amount of amyloid fibrils formed (Naki et al., Lab. Invest. 65:104-110, 1991; Levine III, Protein Sci. 2:404-410, 1993; Amyloid: Int. J. Exp. Clin. Invest. 2:1-6, 1995).
(§1) In this study, 25 μM of pre-fibrillized Aβ 1-42 (Bachem Inc) was incubated at 37° C. for 3 days either alone, or in the presence of one of the compounds or EDTA (at Aβ:test compound weight ratios of 1:1, 1:0.1, 1:0.01 or 1:0.001). Following 3-days of co-incubation, 50 μl of each incubation mixture was transferred into a 96-well microtiter plate containing 150 μl of distilled water and 50 μl of a Thioflavin T solution (i.e. 500 mM Thioflavin T in 250 mM phosphate buffer, pH 6.8). The fluorescence was read at 485 nm (444 nm excitation wavelength) using an ELISA plate fluorometer after subtraction with buffer alone or compound alone, as blank.

IAPP fibrils [1] = target: T2, IAPP fibrils (Homo sapiens, UniProt P10997); assay: Thioflavin T fluorometry - disruption of type 2 diabetes IAPP fibrils; settings: 25 μM pre-fibrillized IAPP, 37° C., 3 days, read-out: % Inhibition IAPP (result ± S.D.)
T2 construct: purchased Bachem Inc
T2 sequence (P10997 34-70 limits assumed): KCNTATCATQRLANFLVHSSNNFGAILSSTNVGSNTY
Description: (§2) In this assay Thioflavin T binds specifically to fibrillar amyloid, and this binding produces a fluorescence enhancement at 485 nm that is directly proportional to the amount of IAPP fibrils present. The higher the fluorescence, the greater the amount of IAPP fibrils present (Naki et al, Lab. Invest. 65:104-110, 1991; Levine III, Protein Sci. 2:404-410, 1993; Amyloid: Int. J. Exp. Clin. Invest. 2:1-6, 1995).
as §1, with “IAPP” for “Aβ 1-42”, “IAPP:test” for “Aβ:test”

IAPP fibrils [2] = target: T2, IAPP fibrils; assay: Congo red binding assay with IAPP fibrils; settings: 3-day incubation
Description: In the Congo red binding assay the ability of a given test compound to alter amyloid (in this case, IAPP) binding to Congo red is quantified. In this assay, IAPP and test compounds were incubated for 3 days and then vacuum filtered through a 0.2 μm filter. The amount of IAPP retained in the filter was then quantitated following staining of the filter with Congo red. After appropriate washing of the filter, any lowering of the Congo red color on the filter in the presence of the test compound (compared to the Congo red staining of the amyloid protein in the absence of the test compound) was indicative of the test compound's ability to diminish/alter the amount of aggregated and congophilic IAPP.
In the study, the ability of IAPP fibrils to bind Congo red in the absence or presence of increasing amounts of the compounds or EDTA (at IAPP:test compound weight ratios of 1:1, 1:0.1, 1:0.01 or 1:0.001) was determined.

NAC fibrils = target: T3, NAC fibrils (Homo sapiens, UniProt P37840); assay: Thioflavin T fluorometry - disruption of Parkinson's disease NAC fibrils; settings: 3 days; for inhibition: 25 μM pre-fibrillized NAC, 37° C., read-out: % Inhibition NAC (result ± S.D.); for disruption/disassembly of pre-formed NAC fibrils (in words): all concentrations tested (ratios 1:1 to 1:0.001)
T3 construct: NAC is a 35-amino acid fragment of α-synuclein; purchased Bachem Inc
Description: as §2, with “assay,” for “assay”, “NAC fibrils,” for “fibrillar amyloid,”, “NAC” for “IAPP”
In this study, 25 μM of pre-fibrillized NAC (Bachem Inc) was incubated at 37° C. for 3 days either alone or in the presence of dihydroxy synthetic analog compounds #1, 3, 23, 26, 52, 63, 66, 67, or EDTA (at NAC:test compound weight ratios of 1:1, 1:0.1, 1:0.01 or 1:0.001). Following 3-days of co-incubation, 50 βl of each incubation mixture was transferred into a 96-well microtiter plate containing 150 μl of distilled water and 50 μl of a Thioflavin T solution (i.e. 500 mM Thioflavin T in 250 mM phosphate buffer, pH 6.8). The fluorescence was read at 485 nm (444 nm excitation wavelength) using an ELISA plate fluorometer after subtraction with buffer alone or compound alone, as blank.

monomeric Aβ 1-42 = target: T4, monomeric Aβ 1-42 (Homo sapiens, UniProt P05067); assay: SDS-PAGE/Western blot of Aβ 1-42 after incubation with compounds; settings: 25 μM pre-fibrillized Aβ 1-42, 37° C., 3 days, 0.2 μm filtrate, antibody 6E10
T4 construct: purchased Bachem Inc
T4 sequence (P05067 672-713): as the sequence (P05067 672-713) above
Description: In this latter study, triplicate samples of pre-fibrillized Aβ 1-42 (25 μM) was incubated at 37° C. for 3 days, alone or in the presence of the compounds or EDTA. Five micrograms of each sample was then filtered through a 0.2 μm filter. Protein recovered from the filtrate was then loaded, and ran on a 10-20% Tris-Tricine SDS-PAGE, blotted to nitrocellulose and detected using an Aβ-antibody (clone 6E10; Senetek).

[3] = Aβ:test compound wt/wt ratio 1:0.001
[4] = Aβ:test compound wt/wt ratio 1:0.01
[5] = Aβ:test compound wt/wt ratio 1:0.1
[6] = Aβ:test compound wt/wt ratio 1:1
[7] = IAPP:test compound wt/wt ratio 1:0.001
[8] = IAPP:test compound wt/wt ratio 1:0.01
[9] = IAPP:test compound wt/wt ratio 1:0.1
[10] = IAPP:test compound wt/wt ratio 1:1
[11] = NAC:test compound wt/wt ratio 1:0.001
[12] = NAC:test compound wt/wt ratio 1:0.01
[13] = NAC:test compound wt/wt ratio 1:0.1
[14] = NAC:test compound wt/wt ratio 1:1

Structure (SMILES) | inhibition (Aβ 1-42 fibrils; [3]) [%] | inhibition (Aβ 1-42 fibrils; [4]) [%] | inhibition (Aβ 1-42 fibrils; [5]) [%] | inhibition (Aβ 1-42 fibrils; [6]) [%] | inhibition (IAPP fibrils [1]; [7]) [%] | inhibition (IAPP fibrils [1]; [8]) [%] | inhibition (IAPP fibrils [1]; [9]) [%] | inhibition (IAPP fibrils [1]; [10]) [%] | % Inhibition IAPP (result ± S.D.), Congo red binding (IAPP fibrils [2]; [7]) [%] | % Inhibition IAPP (result ± S.D.), Congo red binding (IAPP fibrils [2]; [8]) [%] | % Inhibition IAPP (result ± S.D.), Congo red binding (IAPP fibrils [2]; [9]) [%] | % Inhibition IAPP (result ± S.D.), Congo red binding (IAPP fibrils [2]; [10]) [%] | inhibition (NAC fibrils; [11]) [%] | inhibition (NAC fibrils; [12]) [%] | inhibition (NAC fibrils; [13]) [%] | inhibition (NAC fibrils; [14]) [%] | disruption/disassembly of pre-formed NAC fibrils (in words) (NAC fibrils) | detection of Aβ 1-42 monomers (~4 kilodalton band) on Western blot (monomeric Aβ 1-42)
Cc1nc(-c2ccc(O)c(O)c2)cc(-c2ccc(O)c(O)c2)c1C#N [Compound 8, 4,6-bis(3,4-dihydroxyphenyl)-3-cyano-2-methylpyridine] | 4.9 ± 2.27 | 24.7 ± 3.51 | 65.5 ± 0.17 | 70.8 ± 2.57 | 11.4 ± 12.8 | 29.6 ± 5.97 | 67.8 ± 1.74 | 72.8 ± 1.77 | 0.0 ± 6.46 | 7.2 ± 2.27 | 0.0 ± 2.94 | 0.0 ± 2.84 |  |  |  |  |  | 
Oc1ccc(CN2CCN(Cc3ccc(O)c(O)c3)CC2)cc1O [Compound 9, 1,4-bis(3,4-dihydroxybenzyl)piperazine] | 10.6 ± 0.93 | 2 ± 10.8 | 34.9 ± 1.69 | 95.1 ± 0.13 |  |  |  |  |  |  |  |  |  |  |  |  |  | 
O=C(NCc1ccc(O)c(O)c1)c1ccc(O)c(O)c1 [Compound 52, 3,4-dihydroxybenzoic acid 3,4-dihydroxybenzylamide] | 0 | 12.1 ± 0.78 | 53.6 ± 2.42 | 93.7 ± 0.41 | 16 ± 8.42 | 49.2 ± 4.47 | 86.9 ± 3.09 | 97.9 ± 0.19 | 10.2 ± 0.52 | 11.0 ± 3.27 | 11.5 ± 1.21 | 31.3 ± 0.27 | 13.8 ± 10.5 | 79.6 ± 6.43 | 89.2 ± 1.49 | 99.7 ± 1.93 | dose-dependent disruption/disassembly | 
O=C(CCc1ccc(O)c(O)c1)Nc1ccc(O)c(O)c1 [Compound 57, 3-(3,4-dihydroxyphenyl)propionic acid 3,4-dihydroxyanilide] | 17.7 ± 7.43 | 19 ± 6.33 | 60.2 ± 3.12 | 88.4 ± 2.73 | 1.9 ± 5.24 | 37.3 ± 0.78 | 73.2 ± 1.19 | 94.1 ± 0.46 | 4.5 ± 0.64 | 8.5 ± 3.19 | 8.9 ± 3.90 | 15.7 ± 3.77 |  |  |  |  |  | 
O=C(CCc1ccc(O)c(O)c1)NCc1ccc(O)c(O)c1 [Compound 58, 3-(3,4-dihydroxyphenyl)propionic acid 3,4-dihydroxybenzylamide] | 20.5 ± 6.27 | 33.2 ± 5.16 | 76 ± 2.57 | 94.8 ± 1.67 | 8.9 ± 6.87 | 48.8 ± 2.05 | 87.6 ± 1.16 | 98.1 ± 1.04 | 0.0 ± 1.93 | 4.6 ± 2.35 | 0.7 ± 6.21 | 24.5 ± 0.57 |  |  |  |  |  | not detected
O=C(CCC(=O)Nc1ccc(O)c(O)c1)Nc1ccc(O)c(O)c1 [Compound 66, succinic acid bis(3,4-dihydroxyanilide)] | 27.1 ± 3.51 | 42 ± 2.36 | 78.3 ± 4.17 | 100 ± 0.68 | 11.1 ± 5.28 | 47.6 ± 8.16 | 94 ± 2.88 | 98.5 ± 0.06 | 4.8 ± 1.86 | 5.7 ± 4.23 | 15.7 ± 2.53 | 41.4 ± 3.84 | 30.5 ± 9.55 | 43.4 ± 3.45 | 82.5 ± 5.37 | 98.9 ± 0.65 | dose-dependent disruption/disassembly | not detected
Oc1ccc(CNCc2ccc(O)c(O)c2)cc1O [Compound 73, bis(3,4-dihydroxybenzyl)amine] | 0 | 28.7 ± 10.3 | 70.9 ± 3.04 | 99.4 ± 0.42 |  |  |  |  |  |  |  |  |  |  |  |  |  | 
Oc1ccc(CN(Cc2ccc(O)c(O)c2)Cc2ccc(O)c(O)c2)cc1O [Compound 75, tris(3,4-dihydroxybenzyl)amine] | 17 ± 4.2 | 31.6 ± 4.74 | 84.4 ± 0.94 | 99 ± 0.63 | 6 ± 6.46 | 43.9 ± 5.34 | 90 ± 0.27 | 100 ± 0.35 | 2.9 ± 0.69 | 11.3 ± 2.24 | 7.4 ± 0.70 | 49.0 ± 1.17 |  |  |  |  |  | not detected
